# Reference: patent US20040175353A1, “Cyanoacrylate compositions for prophylactic or therapeutic treatment of diseases manifesting themselves in and/or damage cutaneous tissue” (priority 2001, published 2004)
# System: HSV-I infection around the mouth
# Assay: Initial studies: HSV-I infection around the mouth treated with ethyl cyanoacrylate (Examples 1-3)
# Type: in vivo, human
# Procedure: Examples 1-3 are initial studies describing three patient groups at different stages of development of HSV-I infection around the mouth which has been treated with ethyl cyanoacrylate (LOCTITE 411, Henkel Loctite Adhesive Ltd.). The infected areas were applied about ⅓ drop of liquid ethyl cyanoacrylate by means of a toothpick and the polymerization was allowed to pass off.
# Patient group 1 consisted of three patients without visible symptoms. The group was treated prophylactically as mentioned above under latent HSV-I infection, pronounced prickling and itching in the mucous membrane at the lip being the cause of the treatment.
# Patient group 2 consisted of 2 patients with visible blisters in the corner of the mouth due to infection with HSV-I. The group was treated initially for 3 hours, after which the ethyl cyanoacrylate coat with content of virus and tissue was removed. The treatment was repeated 2 times for 24 hours, after which the coat was removed.
# Patient group 3 consisted of 4 patients all having large suppurating crusts in a large area around the mouth. The group were initially treated by applying liquid ethyl cyanoacrylate which was allowed to polymerise. The polymer coat with adhering crust was removed immediately after polymerization, and the treatment repeated 4 times for 24 hours.
smiles,measurement,setting,value
C=C(C#N)C(=O)OCC [ethyl cyanoacrylate],development of visible blisters or wounds,"Patient group 1: three patients, latent HSV-I infection without visible symptoms, prophylactic treatment, coat removed after overnight",no patients in Patient group 1 developed visible blisters or wounds
same,"visible traces, symptoms and scar formation after treatment","Patient group 2: 2 patients with visible blisters in corner of mouth, 3 hours, then repeated 2 times for 24 hours",no visible traces after the outbreak and both patients were free of symptoms without scar formation
same,symptoms and scar formation after treatment,"Patient group 3, fourth patient, treated for further 24 hours",subsequently had no symptoms or scar formation
same,symptoms and scar formation after treatment,"Patient group 3: 4 patients with large suppurating crusts, crust pulled off, treatment repeated 4 times for 24 hours",three patients had no symptoms or scar formation
